Assay results from ChEMBL document CHEMBL1145260, “Design, synthesis and structure-activity relationships of 6-O-arylpropargyl diazalides with potent activity against multidrug-resistant Streptococcus pneumoniae” (2005).
≈ marks a conversion by molar mass, not a printed value.

Key:
Format in all cases: functional
[1] = test system: Staphylococcus aureus; test: Minimum inhibitory concentration against Staphylococcus aureus A5177 (erythromycin-resistant strain
[2] = test system: Streptococcus pyogenes; test: Minimum inhibitory concentration against Streptococcus pyogenes 930 (erythromycin-resistant strain)
[3] = test system: Staphylococcus aureus; test: Minimum inhibitory concentration against Staphylococcus aureus 6538P (erythromycin-susceptible strain)
[4] = test system: Streptococcus pneumoniae; test: Minimum inhibitory concentration against Streptococcus pneumoniae 5979 strain
[5] = test system: Haemophilus influenzae; test: Minimum inhibitory concentration against Haemophilus influenzae GYR1435 (erythromycin susceptible strain)
[6] = test system: Streptococcus pneumoniae; test: Minimum inhibitory concentration against Streptococcus pneumoniae 5649 strain
[7] = test system: Streptococcus pyogenes; test: Minimum inhibitory concentration against Streptococcus pyogenes EES61 (erythromycin-susceptible strain)
[8] = test system: Streptococcus pneumoniae; test: Minimum inhibitory concentration against Streptococcus pneumoniae ATCC 6303 (erythromycin-susceptible strain)

SMILES	MIC [1] [µg/mL]	MIC [2] [µg/mL]	MIC [3] [µg/mL]	MIC [4] [µg/mL]	MIC [5] [µg/mL]	MIC [6] [µg/mL]	MIC [7] [µg/mL]	MIC [8] [µg/mL]
CC[C@H]1OC(=O)[C@H](C)C(=O)[C@H](C)[C@@H](O[C@@H]2O[C@H](C)C[C@H](N(C)C)[C@H]2O)[C@@](C)(OCC#Cc2cccs2)C[C@@H](C)C2=NCCN3C(=O)O[C@@]1(C)[C@H]3[C@H]2C	0.1 (≈ 0.134 µM)	64 (≈ 86 µM)	0.1 (≈ 0.134 µM)	> 128	4 (≈ 5.38 µM)	0.25 (≈ 0.336 µM)	0.03 (≈ 0.0403 µM)	0.03 (≈ 0.0403 µM)
CC[C@H]1OC(=O)[C@H](C)C(=O)[C@H](C)[C@@H](O[C@@H]2O[C@H](C)C[C@H](N(C)C)[C@H]2O)[C@@](C)(OCC#Cc2ccc(-c3cccs3)cc2)C[C@@H](C)C2=NCCN3C(=O)O[C@@]1(C)[C@H]3[C@H]2C	0.03 (≈ 0.0366 µM)	4 (≈ 4.88 µM)	0.5 (≈ 0.61 µM)	≤ 0.008	2 (≈ 2.44 µM)	≤ 0.008	≤ 0.008	≤ 0.008
CC[C@H]1OC(=O)[C@H](C)C(=O)[C@H](C)[C@@H](O[C@@H]2O[C@H](C)C[C@H](N(C)C)[C@H]2O)[C@@](C)(OCC#CCCc2ccc(-c3ccccn3)cc2)C[C@@H](C)C2=NCCN3C(=O)O[C@@]1(C)[C@H]3[C@H]2C	0.25 (≈ 0.297 µM)	0.5 (≈ 0.593 µM)	0.25 (≈ 0.297 µM)	0.03 (≈ 0.0356 µM)	2 (≈ 2.37 µM)	0.06 (≈ 0.0712 µM)	≤ 0.008	≤ 0.008
CC[C@H]1OC(=O)[C@H](C)C(=O)[C@H](C)[C@@H](O[C@@H]2O[C@H](C)C[C@H](N(C)C)[C@H]2O)[C@@](C)(OCC#Cc2cccnc2)C[C@@H](C)C2=NCCN3C(=O)O[C@@]1(C)[C@H]3[C@H]2C	0.2 (≈ 0.271 µM)	64 (≈ 86.6 µM)	0.2 (≈ 0.271 µM)	> 128	2 (≈ 2.71 µM)	1 (≈ 1.35 µM)	0.03 (≈ 0.0406 µM)	0.03 (≈ 0.0406 µM)
CC[C@H]1OC(=O)[C@H](C)C(=O)[C@H](C)[C@@H](O[C@@H]2O[C@H](C)C[C@H](N(C)C)[C@H]2O)[C@@](C)(OCC#Cc2cnc3ccccc3c2)C[C@@H](C)C2=NCCN3C(=O)O[C@@]1(C)[C@H]3[C@H]2C	0.1 (≈ 0.127 µM)	1 (≈ 1.27 µM)	0.1 (≈ 0.127 µM)	2 (≈ 2.53 µM)	2 (≈ 2.53 µM)	0.25 (≈ 0.317 µM)	0.015 (≈ 0.019 µM)	≤ 0.004
CC[C@H]1OC(=O)[C@@](C)(F)C(=O)[C@H](C)[C@@H](O[C@@H]2O[C@H](C)C[C@H](N(C)C)[C@H]2O)[C@@](C)(OCC#Cc2cnc3c(F)cccc3c2)C[C@@H](C)C2=NCCN3C(=O)O[C@@]1(C)[C@H]3[C@H]2C	0.125 (≈ 0.152 µM)	0.25 (≈ 0.303 µM)	0.25 (≈ 0.303 µM)	0.125 (≈ 0.152 µM)	4 (≈ 4.85 µM)	0.125 (≈ 0.152 µM)	≤ 0.008	≤ 0.008
CC[C@H]1OC(=O)[C@H](C)C(=O)[C@H](C)[C@@H](O[C@@H]2O[C@H](C)C[C@H](N(C)C)[C@H]2O)[C@](C)(OCC=Cc2cnc3ccccc3c2)C[C@@H](C)C(=O)[C@H](C)[C@H]2NC(=O)O[C@@]21C [CETHROMYCIN]	0.05 (≈ 0.0653 µM)	1 (≈ 1.31 µM)	0.05 (≈ 0.0653 µM)	16 (≈ 20.9 µM)	2 (≈ 2.61 µM)	0.25 (≈ 0.326 µM)	< 0.005	0.03 (≈ 0.0392 µM)
CC[C@H]1OC(=O)[C@H](C)C(=O)[C@H](C)[C@@H](O[C@@H]2O[C@H](C)C[C@H](N(C)C)[C@H]2O)[C@@](C)(OCC#Cc2ccc(-c3nnn(C)n3)s2)C[C@@H](C)C2=NCCN3C(=O)O[C@@]1(C)[C@H]3[C@H]2C	0.125 (≈ 0.151 µM)	2 (≈ 2.42 µM)	0.5 (≈ 0.605 µM)	0.003 (≈ 0.00363 µM)	4 (≈ 4.84 µM)	0.06 (≈ 0.0726 µM)	≤ 0.008	≤ 0.008
CC[C@H]1OC(=O)[C@H](C)C(=O)[C@H](C)[C@@H](O[C@@H]2O[C@H](C)C[C@H](N(C)C)[C@H]2O)[C@@](C)(OCC#Cc2cnc3c(OC)cccc3c2)C[C@@H](C)C2=NCCN3C(=O)O[C@@]1(C)[C@H]3[C@H]2C	0.06 (≈ 0.0733 µM)	4 (≈ 4.88 µM)	0.25 (≈ 0.305 µM)	8 (≈ 9.77 µM)	2 (≈ 2.44 µM)	0.06 (≈ 0.0733 µM)	≤ 0.008	≤ 0.008
CC[C@H]1OC(=O)[C@H](C)C(=O)[C@H](C)[C@@H](O[C@@H]2O[C@H](C)C[C@H](N(C)C)[C@H]2O)[C@@](C)(OCC#Cc2ccc(-c3ccccn3)cc2)C[C@@H](C)C2=NCCN3C(=O)O[C@@]1(C)[C@H]3[C@H]2C	0.03 (≈ 0.0368 µM)	8 (≈ 9.82 µM)	0.25 (≈ 0.307 µM)	≤ 0.008	1 (≈ 1.23 µM)	≤ 0.008	≤ 0.008	≤ 0.008
CC[C@H]1OC(=O)[C@H](C)C(=O)[C@H](C)[C@@H](O[C@@H]2O[C@H](C)C[C@H](N(C)C)[C@H]2O)[C@@](C)(OCC#Cc2ccccc2)C[C@@H](C)C2=NCCN3C(=O)O[C@@]1(C)[C@H]3[C@H]2C	0.2 (≈ 0.271 µM)	64 (≈ 86.7 µM)	0.2 (≈ 0.271 µM)	> 128	8 (≈ 10.8 µM)	0.5 (≈ 0.678 µM)	0.06 (≈ 0.0813 µM)	0.03 (≈ 0.0407 µM)
CC[C@H]1OC(=O)[C@H](C)[C@@H](O[C@H]2C[C@@](C)(OC)[C@@H](O)[C@H](C)O2)[C@H](C)[C@@H](O[C@@H]2O[C@H](C)C[C@H](N(C)C)[C@H]2O)[C@](C)(O)C[C@@H](C)C(=O)[C@H](C)[C@@H](O)[C@]1(C)O [ERYTHROMYCIN]	6.2 (≈ 8.45 µM)	> 128	0.39 (≈ 0.531 µM)	> 128	8 (≈ 10.9 µM)	16 (≈ 21.8 µM)	0.03 (≈ 0.0409 µM)	0.06 (≈ 0.0818 µM)
CC[C@H]1OC(=O)[C@H](C)C(=O)[C@H](C)[C@@H](O[C@@H]2O[C@H](C)C[C@H](N(C)C)[C@H]2O)[C@@](C)(OCC#CCCc2ccc(-c3cccs3)cc2)C[C@@H](C)C2=NCCN3C(=O)O[C@@]1(C)[C@H]3[C@H]2C	0.5 (≈ 0.59 µM)	0.5 (≈ 0.59 µM)	1 (≈ 1.18 µM)	0.125 (≈ 0.147 µM)	8 (≈ 9.43 µM)	0.25 (≈ 0.295 µM)	≤ 0.008	0.015 (≈ 0.0177 µM)
CC[C@H]1OC(=O)[C@H](C)C(=O)[C@H](C)[C@@H](O[C@@H]2O[C@H](C)C[C@H](N(C)C)[C@H]2O)[C@@](C)(OC)C[C@@H](C)C2=NCCN3C(=O)O[C@@]1(C)[C@H]3[C@H]2C	0.1 (≈ 0.157 µM)	> 128	0.1 (≈ 0.157 µM)	> 128	4 (≈ 6.27 µM)	1 (≈ 1.57 µM)	0.06 (≈ 0.0941 µM)	0.06 (≈ 0.0941 µM)
CC[C@H]1OC(=O)[C@@](C)(F)C(=O)[C@H](C)[C@@H](O[C@@H]2O[C@H](C)C[C@H](N(C)C)[C@H]2O)[C@@](C)(OCC#Cc2ccc(-c3nnn(C)n3)s2)C[C@@H](C)C2=NCCN3C(=O)O[C@@]1(C)[C@H]3[C@H]2C	0.125 (≈ 0.148 µM)	2 (≈ 2.37 µM)	0.5 (≈ 0.592 µM)	0.125 (≈ 0.148 µM)	4 (≈ 4.74 µM)	0.25 (≈ 0.296 µM)	≤ 0.008	≤ 0.008
CC[C@H]1OC(=O)[C@H](C)C(=O)[C@H](C)[C@@H](O[C@@H]2O[C@H](C)C[C@H](N(C)C)[C@H]2O)[C@@](C)(OCC#Cc2cnc3c(F)cccc3c2)C[C@@H](C)C2=NCCN3C(=O)O[C@@]1(C)[C@H]3[C@H]2C	0.1 (≈ 0.124 µM)	0.5 (≈ 0.62 µM)	0.06 (≈ 0.0744 µM)	4 (≈ 4.96 µM)	2 (≈ 2.48 µM)	0.25 (≈ 0.31 µM)	≤ 0.008	0.004 (≈ 0.00496 µM)
